Read-outs that look alike come from different tables or passages of the source.
Experiments:
Assay type in all cases: cell-based
KG-1a cells = assay: Cell viability assay (CellTiter Glo, 72 hours) in KG-1a cells
Experimental: (§1) KG1a (CCL-246.1, ATCC) and CCRF-CEM (CCL-199, ATCC) cells were grown in RPMI-1640 media containing 10% FBS in T-75 flasks to a density of 1×10^6 cells per mL. Exponentially gown cells were used for the assay. Day 1: 7.5×10^3 cells were seeded in each well of 96 well plate. Day 2: Cells were treated with serial dilutions of each compound (starting 20 uM) or with DMSO as control for 72 hours. Day 5: CellTiter Glo (G9241, Promega) was added to the media of each well and measured by plate reader (Synergy 4, Biotek). Data analysis: Using GraphPad Prism 7 (GraphPad).

DNMT-1 = assay: Western blot analysis of DNMT-1 in CEM cells; conditions: DNMT-1 depletion in CEM cells, 96 hours
Experimental: Cells were treated with serial dilutions of each compound (starting 100 uM for HCT-116 and NCI-H23 cells, and 20 uM for KG-1a and CCRF-CEM cells) or with DMSO as control for 96 hours. Cell lysates were collected and proteins were separated with a SDS-PAGE gel, transferred to a nitrocellulose membrane, blocked in 5% non-fat milk in TBS-T, and probed with anti DNMT-1 (1:7000) rabbit polyclonal antibodies (cat #ab19905, Abcam) in 5% non-fat milk in TBS-T overnight. Membranes were washed three times with TBS-T. The anti-rabbit IgG (7074p2, Cell Signaling) secondary antibody was added at a concentration of 1:5000 in 5% non-fat milk in TBS-T for two hours in room temperature. Membranes were then washed three times with TBS-T, 5 minutes each time. Membranes were then incubated with SuperSignal West Pico Chemiluminescent Substrate (#34080 Thermo) and exposed onto film. Membranes were stripped with stripping buffer (#21059, Thermo) and re-probed with mouse anti tubulin 1:10,000 (T9026, Sigma) and anti-mouse IgG 1:5,000 (70′76p2, Cell Signaling).

CCRF-CEM cells = assay: Cell viability assay (CellTiter Glo, 72 hours) in CEM cells
Experimental: as §1

[1] = Homo sapiens, KG-1a, 72 h, read-out: Cell Line IC50 (μM) KG-1a
[2] = Homo sapiens, CCRF-CEM, 72 h, read-out: Cell Line IC50 (μM) CEM
[3] = read-out: Cell Line IC50 (μM) KG-1a
[4] = read-out: Cell Line IC50 (μM) CEM

Q: How did the IC50 (KG-1a cells; [1]) turn out when `C[C@H](N[P@](=O)(OC[C@H]1S[C@@H](n2cnc(N)nc2=O)C[C@@H]1O)Oc1ccccc1)C(=O)OCc1ccccc1` [Compound 1, Benzyl ((S)-(((2R,3S,5R)-5-(4-amino-2-oxo-1,3,5-triazin-1(2H)-yl)-3-hydroxytetrahydrothiophen-2-yl)methoxy)(phenoxy)phosphoryl)-L-alaninate] was run?
A: 0.92 µM

Q: What about the IC50 (DNMT-1) of the same compound?
A: 1200 nM

Q: And the IC50 (CCRF-CEM cells; [2])?
A: 0.13 µM

Q: `CCC(CC)COC(=O)[C@H](C)N[P@](=O)(OC[C@H]1S[C@@H](n2ccc(N)nc2=O)CC1O)Oc1ccccc1` (stereo partly drawn) [Compound 14] was tested. Which IC50 (KG-1a cells; [1]) did it give?
A: 0.62 µM

Q: And the IC50 (DNMT-1)?
A: 1000 nM

Q: And the IC50 (CCRF-CEM cells; [2])?
A: 0.15 µM

Q: `C[C@H](NP(=O)(OC[C@H]1S[C@@H](n2cnc(N)nc2=O)CC1O)Oc1cccc2ccccc12)C(=O)OCc1ccccc1` (single isomer, unassigned) [Compound 9 Diastereomer 1] was tested. Which IC50 (KG-1a cells; listed as 9 Diastereomer 1, read-out: Cell Line IC50 (μM) KG-1a) did it give?
A: 1.1 µM

Q: And the IC50 (DNMT-1; listed as 9 Diastereomer 1)?
A: 300 nM

Q: And the IC50 (CCRF-CEM cells; listed as 9 Diastereomer 1, read-out: Cell Line IC50 (μM) CEM)?
A: 0.5 µM

Q: For `CCOC(=O)[C@H](C)N[P@](=O)(OC[C@H]1S[C@@H](n2cnc(N)nc2=O)C[C@@H]1O)Oc1ccccc1` [Compound 6, Ethyl ((S)-(((2R,3S,5R)-5-(4-amino-2-oxo-1,3,5-triazin-1(2H)-yl)-3-hydroxytetrahydrothiophen-2-yl)-methoxy)(phenoxy)-phosphoryl)-L-alaninate], which IC50 (KG-1a cells; [1]) is on record?
A: 0.31 µM

Q: And the IC50 (DNMT-1)?
A: 350 nM

Q: And the IC50 (CCRF-CEM cells; [2])?
A: 1.73 µM

Q: With `CCC(CC)COC(=O)[C@H](C)NP(=O)(OC[C@H]1S[C@@H](n2cnc(N)nc2=O)C[C@@H]1O)Oc1cccc2ccccc12` (single isomer, unassigned) [Compound 11 Diastereomer 1] as the compound, how does the IC50 (KG-1a cells; [1]) read?
A: 0.6 µM

Q: And the IC50 (DNMT-1)?
A: 500 nM

Q: And the IC50 (CCRF-CEM cells; [2])?
A: 0.2 µM

Q: Which results are given for `CC(C)OC(=O)[C@H](C)N[P@](=O)(OC[C@H]1S[C@@H](n2ccc(N)nc2=O)CC1O)Oc1ccccc1` (stereo partly drawn) [Compound 15]?
A: IC50 (KG-1a cells; [1]): 0.9 µM; IC50 (DNMT-1): 330 nM; IC50 (CCRF-CEM cells; [2]): 0.37 µM

Q: Which IC50 (KG-1a cells; [1]) does the source give for `C[C@H](N[P@](=O)(OC[C@H]1S[C@@H](n2cnc(N)nc2=O)C[C@@H]1O)Oc1ccccc1)C(=O)OCc1ccc([N+](=O)[O-])o1` [Compound 7, (5-nitrofuran-2-yl)methyl ((S)-(((2R,3S,5R)-5-(4-amino-2-oxo-1,3,5-triazin-1(2H)-yl)-3-hydroxytetrahydro-thiophen-2-yl)-methoxy)(phenoxy)-phosphoryl)-L-alaninate] here?
A: 0.76 µM

Q: What about the IC50 (DNMT-1) of the same compound?
A: 220 nM

Q: What about the IC50 (CCRF-CEM cells; [2]) of the same compound?
A: 1.71 µM

Q: With `CC(C)COC(=O)[C@H](C)N[P@](=O)(OC[C@H]1S[C@@H](n2cnc(N)nc2=O)C[C@@H]1O)Oc1ccccc1` [Compound 2, Isobutyl ((S)-(((2R,3S,5R)-5-(4-amino-2-oxo-1,3,5-triazin-1(2H)-yl)-3-hydroxytetrahydrothiophen-2-yl)methoxy)(phenoxy)phosphoryl)-L-alaninate] as the compound, how does the IC50 (KG-1a cells; [1]) read?
A: 1.34 µM

Q: What about the IC50 (DNMT-1) of the same compound?
A: 800 nM

Q: And the IC50 (CCRF-CEM cells; [2])?
A: 0.24 µM

Q: Which IC50 (KG-1a cells; [1]) does the source give for `CC(C)OC(=O)[C@H](C)N[P@](=O)(OC[C@H]1S[C@@H](n2cnc(N)nc2=O)C[C@@H]1O)Oc1ccccc1` [Compound 4, Isopropyl ((S)-(((2R,3S,5R)-5-(4-amino-2-oxo-1,3,5-triazin-1(2H)-yl)-3-hydroxytetrahydrothiophen-2-yl)methoxy)(phenoxy)phosphoryl)-L-alaninate] here?
A: 0.57 µM

Q: And the IC50 (DNMT-1)?
A: 850 nM

Q: What about the IC50 (CCRF-CEM cells; [2]) of the same compound?
A: 0.24 µM

Q: With `CC(C)COC(=O)[C@H](C)NP(=O)(OC[C@H]1S[C@@H](n2cnc(N)nc2=O)CC1O)Oc1cccc2ccccc12` (single isomer, unassigned) [Compound 10 Diastereomer 1] as the compound, how does the IC50 (KG-1a cells; [1]) read?
A: 0.3 µM

Q: What about the IC50 (DNMT-1; listed as 10 Diastereomer 1) of the same compound?
A: 600 nM

Q: What about the IC50 (CCRF-CEM cells; [2]) of the same compound?
A: 0.2 µM

Q: How did the IC50 (KG-1a cells; [1]) turn out when `CCC(CC)COC(=O)[C@H](C)NP(=O)(OC[C@H]1S[C@@H](n2cnc(N)nc2=O)CC1O)Oc1cccc2ccccc12` (single isomer, unassigned) [Compound 11 Diastereomer 2] was run?
A: 0.6 µM

Q: What about the IC50 (DNMT-1) of the same compound?
A: 500 nM

Q: And the IC50 (CCRF-CEM cells; [2])?
A: 0.08 µM

Q: What does the source list for `C[C@H](NP(=O)(OC[C@H]1S[C@@H](n2cnc(N)nc2=O)CC1O)Oc1ccccc1)C(=O)OC1CCCC1` (single isomer, unassigned) [Compound 8 Diastereomer 1]?
A: IC50 (KG-1a cells; [1]): 0.6 µM; IC50 (DNMT-1; listed as 8 Diastereomer 1): 330 nM; IC50 (CCRF-CEM cells; [2]): 2.08 µM

Q: Which results are given for `C[C@H](NP(=O)(OC[C@H]1S[C@@H](n2cnc(N)nc2=O)CC1O)Oc1ccccc1)C(=O)OC1CCCC1` (single isomer, unassigned) [Compound 8 Diastereomer 2]?
A: IC50 (KG-1a cells; [3]): 1.04 µM; IC50 (DNMT-1; listed as 8 Diastereomer 2): 450 nM; IC50 (CCRF-CEM cells; [4]): 1.65 µM

Q: Which IC50 (KG-1a cells; [3]) does the source give for `CC(C)COC(=O)[C@H](C)NP(=O)(OC[C@H]1S[C@@H](n2cnc(N)nc2=O)CC1O)Oc1cccc2ccccc12` (single isomer, unassigned) [Compound 10 Diastereomer 2] here?
A: 0.3 µM

Q: What about the IC50 (DNMT-1; listed as 10 Diastereomer 2) of the same compound?
A: 800 nM

Q: And the IC50 (CCRF-CEM cells; [4])?
A: 0.2 µM

Q: For `CC(C)OC(=O)[C@H](C)NP(=O)(OC[C@H]1S[C@@H](n2cnc(N)nc2=O)C[C@@H]1O)Oc1cccc2ccccc12` (single isomer, unassigned) [Compound 12 Diastereomer 2], which IC50 (KG-1a cells; [3]) is on record?
A: 0.7 µM

Q: And the IC50 (DNMT-1; listed as 12 Diastereomer 2)?
A: 1000 nM

Q: What about the IC50 (CCRF-CEM cells; listed as 12 Diastereomer 2, read-out: Cell Line IC50 (μM) CEM) of the same compound?
A: 0.1 µM

Q: What does the source list for `CC(C)OC(=O)[C@H](C)NP(=O)(OC[C@H]1S[C@@H](n2cnc(N)nc2=O)C[C@@H]1O)Oc1cccc2ccccc12` (single isomer, unassigned) [Compound 12 Diastereomer 1]?
A: IC50 (KG-1a cells; [1]): 0.6 µM; IC50 (DNMT-1; listed as 12 Diastereomer 1): 800 nM; IC50 (CCRF-CEM cells; listed as 12 Diastereomer 1, read-out: Cell Line IC50 (μM) CEM): 0.3 µM

Q: Which results are given for `C[C@H](NP(=O)(OC[C@H]1S[C@@H](n2cnc(N)nc2=O)CC1O)Oc1cccc2ccccc12)C(=O)OCc1ccccc1` (single isomer, unassigned) [Compound 9 Diastereomer 2]?
A: IC50 (KG-1a cells; listed as 9 Diastereomer 2, read-out: Cell Line IC50 (μM) KG-1a): 0.4 µM; IC50 (DNMT-1; listed as 9 Diastereomer 2): 1400 nM; IC50 (CCRF-CEM cells; listed as 9 Diastereomer 2, read-out: Cell Line IC50 (μM) CEM): 0.2 µM

Q: `Nc1ccn([C@H]2C[C@@H](O)[C@@H](CO)S2)c(=O)n1` [T-dCyd, 4-amino-1-[(2R,4R,5R)-4-hydroxy-5-(hydroxymethyl)thiolan-2-yl]pyrimidin-2-one, reference compound] was tested. Which IC50 (KG-1a cells; Homo sapiens, read-out: Cell Line IC50 (μM) KG-1a) did it give?
A: 0.48 µM

Q: What about the IC50 (DNMT-1) of the same compound?
A: 470 nM

Q: And the IC50 (CCRF-CEM cells; Homo sapiens, CCRF-CEM, read-out: Cell Line IC50 (μM) CEM)?
A: 0.08 µM

Q: For `COC(=O)[C@H](C)N[P@](=O)(OC[C@H]1S[C@@H](n2cnc(N)nc2=O)C[C@@H]1O)Oc1ccccc1` [Compound 5, Methyl ((S)-(((2R,3S,5R)-5-(4-amino-2-oxo-1,3,5-triazin-1(2H)-yl)-3-hydroxytetrahydrothiophen-2-yl)-methoxy)(phenoxy)-phosphoryl)-L-alaninate], which IC50 (KG-1a cells; [1]) is on record?
A: 1.67 µM

Q: What about the IC50 (DNMT-1) of the same compound?
A: 610 nM

Q: And the IC50 (CCRF-CEM cells; [2])?
A: 2.06 µM
